Holding throughout (assay): Real-time RT-PCR in PMCs from dialysed rats
Common to all, as to assay type: in vivo, rat

In test [1] the test system is BAX. The note with it: peritoneal cells from rats dialysed four weeks, aliskiren 0.1 or 1 mg/Kg, FIG. 15. Here is the method:
(§1) The rats were exposed daily for four weeks to carrier (saline serum), 1.5% PDF, 2.3% PDF or 4.5% PDF supplemented by carrier, 0.1 mg/Kg aliskiren or 1 mg/Kg aliskiren. The data is expressed as mean±SEM, n=6 rats per group. * p<0.05, compared to the group treated with carrier in the absence of aliskiren (carrier). # p<0.05, compared to their respective groups treated with PDFs in the absence of aliskiren.
(§2) For in vivo studies, 78 female rats of the Sprague-Dawley female strain weighing 200-240 g (Charles River Breeding Laboratories) were used: fifty-four rats were assigned to the group of animals which had been administered high-glucose peritoneal dialysis solutions (PDF), which were divided into three different subgroups with eighteen rats each which were administered, respectively, three PDFs having different glucose concentrations (Fresenius Medical Car, Bad Homburg, Germany). Additionally, eighteen rats were administered a carrier (saline serum) and another six rats were used as a control group (not dialysed). […]
(§3) At the end of the experimental period (four weeks), 30 ml of a commercial PDF with 2.3% glucose (Fresenius Medical Car, Bad Homburg, Germany) was administered intraperitoneally using a 22G needle. […] Their body weight was measured at the start and end of the experimental period. […]
(§4) The blood and dialysate samples were centrifuged and stored at −20° C. The concentrations of creatinine and glucose in the serum and dialysate were measured using enzymatic methods. The peritoneal transport of solutes was calculated, on one hand, as the glucose concentration in the dialysate 2 hours after the PET relative to the initial glucose concentration in the PDF (D2/D0 glucose) and, on the other, as the dialysate/plasma creatinine concentration ratio (D2/P2 creatinine) 2 h after the PET. […]
(§5) The RNA expression was evaluated by real-time RT-PCR in PMCs. […] RNA quality and concentration was evaluated by spectrophotometry (Infinite 200, Tecan, Salzburg, Austria) using 1 μl of the RNA sample. […]

In test [2] the test system is Collagen III. The note with it: peritoneal cells from rats dialysed four weeks, aliskiren 0.1 or 1 mg/Kg, FIG. 18. Here is the method: as §1, §2, §3, §4, §5
Test [3] concerns Bcl-2. The following applies: peritoneal cells from rats dialysed four weeks, aliskiren 0.1 or 1 mg/Kg, FIG. 16. Here is the method: as §1, §2, §3, §4, §5

Consider `COCCCOc1cc(C[C@@H](C[C@H](N)[C@@H](O)C[C@H](C(=O)NCC(C)(C)C(N)=O)C(C)C)C(C)C)ccc1OC` [aliskiren], for which the “RNAm expression of pro-apoptotic protein Bax” value in test [1] is “reduced”. Moreover, the “RNAm expression of collagen III” value in test [2] is recorded as “increased”. Also, the “RNAm expression of anti-apoptotic protein Bcl-2” value in test [3] is reported as “increased”.

Source of the values: patent US20130065964A1, “PERITONEAL DIALYSIS SOLUTION” (UNIVERSIDAD DE CASTILLA LA MANCHA, priority 2010, published 2013).
